Reference: US8664289B2, “Dye and coloring photosensitive composition” (Adeka Corporation, priority 2010, dated 2014)

Experiments:
Format in all cases: physicochemical
[1] = Evaluation of absorption wavelength property in CHCl3 solution; set-up: ε: unit not given here; conditions: for ε: molar absorption coefficient
Text: The absorption wavelength properties of Compounds Nos. 1 to 7, 16, 26, 43, 52 to 62, 65, 66, 69, 70 and 94 to 102 and Comparative Compounds Nos. 1 and 2 obtained above were each evaluated in a CHCl3 solution. The results are shown in [Table 5].

[2] = Evaluation of heat resistance by TG-DTA; conditions: temperature at 10% weight loss
Protocol: Compounds Nos. 1 to 7, 16, 26, 43, 52 to 62, 65, 66, 69, 70 and 94 to 102 and Comparative Compounds Nos. 1 and 2 obtained above were analyzed by TG-DTA, and the melting points and temperatures at 10% weight loss were measured. The results are shown in [Table 6].

[3] = Heat resistance of exposed coating film of coloring alkali-developable photosensitive composition; conditions: for Relative intensity After exposure: coating film after exposure (150 mJ/cm^2), before heating; for λmax: coating film of composition containing the compound, on glass; for Relative intensity 230° C., 30 min: exposed coating film after 230° C.
Text: 30.33 g of ACA Z250 (manufactured by Daicel Cytec Company Ltd.) and 11.04 g of ARONIX M-450 (manufactured by Toagosei Co., Ltd.) as the component (B), 1.93 g of IRGACURE 907 (manufactured by BASF) as the component (C), 36.60 g of PGMEA and 20.08 g of cyclohexanone as the component (E), as well as 0.01 g of FZ2122 (manufactured by Dow Corning Toray Co., Ltd.) as other component were mixed and stirred until insoluble components were diminished to give Alkali-developable photosensitive composition No. 1.
1.90 g of dimethylacetamide was added to 0.10 g of Compound No. 1 obtained above as the component (A) and dissolved under stirring.
5.0 g of Alkali-developable photosensitive composition No. 1 obtained in Step 1 and 1.0 g of Dye liquid No. 1 obtained in Step 2 were mixed and stirred to homogeneous to give Coloring alkali-developable photosensitive composition No. 1 of the present invention.
Coloring alkali-developable photosensitive compositions Nos. 2 to 20 were obtained in a similar manner to that in Example 2-1, except that Compound No. 1 as the component (A) in Step 2 of Example 2-1 was changed to Compound No. 2, 3, 5, 6, 16, 53, 56, 57, 59, 60, 65, 66, 94 or 96 to 101 obtained above.
Comparative coloring alkali-developable photosensitive compositions Nos. 1 and 2 were obtained in a similar manner to that in Example 2-1, except that Compound No. 1 as the component (A) in Step 2 of Example 2-1 was changed to Comparative Compound No. 1 or 2.
The coloring alkali-developable photosensitive compositions obtained in Example 2 were each applied to a glass basal plate under a condition of 410 rpm×7 sec and dried (90° C., 90 sec) on a hot plate. The obtained coating film was exposed (150 mJ/cm^2) by using an ultrahigh pressure mercury lamp. The heat resistance of the exposed coating film was investigated under conditions of 180° C.×60 min and 230° C.×30 min. The results are shown in [Table 7].
Using the coloring alkali-developable photosensitive compositions obtained in Examples 2-2 to 2-20 and Comparative Examples 2-1 and 2-2, heat resistance was investigated in a similar manner to that in Evaluation Example 3. The results are shown in [Table 7].

Solubility in PGMEA = conditions: concentration when PGMEA was added dropwise to 0.1 g of the compound under stirring and was dissolved completely
Protocol: (§1) That the obtained solid was an intended product was confirmed by ^1H-NMR and IR. Furthermore, the solubility of the obtained compound was measured. The solubility was a concentration when PGMEA was added dropwise to 0.1 g of the compound under stirring and was dissolved completely. The results thereof are shown in [Table 1] to [Table 4].
as §1, with “added” for “added dropwise”, “while” for “under”, “4]” for “4].”

SMILES	λmax [1] [nm]	ε [1]	10% weight loss [2] [°C]	Relative intensity After exposure [3]	λmax [3] [nm]	Relative intensity 230° C., 30 min [3]	Solubility (PGMEA) (Solubility in PGMEA)
CCOC(=O)/C(C#N)=C/c1ccc(N(CC)CC)cc1 [Comparative Compound No. 1, reference compound]	430	54900	259				
CCOCCOC(=O)/C(C#N)=C/c1ccc(N(CC)CC)cc1 [Comparative Compound No. 2, reference compound]				100	433	24.0	
CCOCCOC(=O)C(C#N)=C(C)c1ccc(N(CC)CC)cc1 [Comparative Compound No. 2, reference compound]	432	57200	252				
CCN(CC)c1ccc(/C=C(\C#N)C(=O)OCCOC(=O)/C(C#N)=C/c2ccc(N(CC)CC)cc2)cc1 [Compound No. 1]	436	107000	318	100	418	99.4	0.5 wt %
CCN(CC)c1ccc(/C=C(\C#N)C(=O)OCC(C)OC(=O)/C(C#N)=C/c2ccc(N(CC)CC)cc2)cc1 (centres unmarked) [Compound No. 2]	434	100000	312	100	430	99.3	4.0 wt %
CCN(CC)c1ccc(/C=C(\C#N)C(=O)OCCCOC(=O)/C(C#N)=C/c2ccc(N(CC)CC)cc2)cc1 [Compound No. 3]	435	104000	329	100	433	99.4	0.4 wt %
CCN(CC)c1ccc(/C=C(\C#N)C(=O)OCCCCCOC(=O)/C(C#N)=C/c2ccc(N(CC)CC)cc2)cc1 [Compound No. 4]	431	110000	335				0.6 wt %
CCN(CC)c1ccc(/C=C(\C#N)C(=O)OCCCCCCCOC(=O)/C(C#N)=C/c2ccc(N(CC)CC)cc2)cc1 [Compound No. 5]	430	110000	348	100	431	99.5	2.0 wt %
CCN(CC)c1ccc(/C=C(\C#N)C(=O)Oc2ccc(C(C)(C)c3ccc(OC(=O)/C(C#N)=C/c4ccc(N(CC)CC)cc4)cc3)cc2)cc1 [Compound No. 6]	440	132000	322	100	442	99.9	0.9 wt %
CCN(CC)c1ccc(/C=C(\C#N)C(=O)NCCCCCCNC(=O)/C(C#N)=C/c2ccc(N(CC)CC)cc2)cc1 [Compound No. 7]	432	99600	352				0.2 wt %
CCN(CC)c1ccc(/C=C(\C#N)C(=O)OCC(COC(=O)/C(C#N)=C/c2ccc(N(CC)CC)cc2)(COC(=O)/C(C#N)=C/c2ccc(N(CC)CC)cc2)COC(=O)/C(C#N)=C/c2ccc(N(CC)CC)cc2)cc1 [Compound No. 16]	439	210000	328	100	438	99.7	1.8 wt %
CCN(CC)c1ccc(/C=C(\C#N)C(=O)Oc2ccc(-c3nc(-c4ccc(OC(=O)/C(C#N)=C/c5ccc(N(CC)CC)cc5)cc4)nc(-c4ccc(OC(=O)/C(C#N)=C/c5ccc(N(CC)CC)cc5)cc4)n3)cc2)cc1 [Compound No. 26]	447	210000	321				1.0 or less wt %
CC(COC(=O)/C(C#N)=C/c1ccc(N2CCOCC2)cc1)OC(=O)/C(C#N)=C/c1ccc(N2CCOCC2)cc1 (centres unmarked) [Compound No. 43]	408	62800	318				1.0 or less wt %
CCN(CC)c1ccc(/C=C(\C#N)C(=O)Oc2ccc(C3(c4ccc(OC(=O)/C(C#N)=C/c5ccc(N(CC)CC)cc5)cc4)CCCCC3)cc2)cc1 [Compound No. 52]	441	121000	322				0.6 wt %
CCN(CC)c1ccc(/C=C(\C#N)C(=O)NCC(C)NC(=O)/C(C#N)=C/c2ccc(N(CC)CC)cc2)cc1 (centres unmarked) [Compound No. 54]	428	90500	354				1.0 or less wt %
CC(COC(=O)/C(C#N)=C/c1ccc(N(C)C)cc1)OC(=O)/C(C#N)=C/c1ccc(N(C)C)cc1 (centres unmarked) [Compound No. 55]	427	84600	323				1.0 or less wt %
CCN(CC)c1ccc(/C=C(\C#N)C(=O)OCC(C)(COC(=O)/C(C#N)=C/c2ccc(N(CC)CC)cc2)COC(=O)/C(C#N)=C/c2ccc(N(CC)CC)cc2)cc1 [Compound No. 56]	436	160000	334	100	430	99.9	5.6 wt %
CCN(CCC#N)c1ccc(/C=C(\C#N)C(=O)OCCCCCCOC(=O)/C(C#N)=C/c2ccc(N(CC)CCC#N)cc2)cc1 [Compound No. 58]	420	80500	351				1.0 or less wt %
CN(C)c1ccc(/C=C(\C#N)C(=O)OCCCCCCCCCCOC(=O)/C(C#N)=C/c2ccc(N(C)C)cc2)cc1 [Compound No. 61]	423	90800	350				1.0 or less wt %
CC(=O)OCCN(CCOC(C)=O)c1ccc(/C=C(\C#N)C(=O)OCCCCCCCOC(=O)/C(C#N)=C/c2ccc(N(CCOC(C)=O)CCOC(C)=O)cc2)cc1 [Compound No. 62]	409	89900	366				1.0 or less wt %
CCCCN(CCCC)c1ccc(/C=C(\C#N)C(=O)Oc2ccc(C(c3ccc(OC(=O)/C(C#N)=C/c4ccc(N(CCCC)CCCC)cc4)cc3)(C(F)(F)F)C(F)(F)F)cc2)cc1 [Compound No. 69]	448	107000	336				1.0 or less wt %
CCCCN(CCCC)c1ccc(/C=C(\C#N)C(=O)Oc2ccc(S(=O)(=O)c3ccc(OC(=O)/C(C#N)=C/c4ccc(N(CCCC)CCCC)cc4)cc3)cc2)cc1 [Compound No. 70]	453	135000	324				1.0 or less wt %
CCCCN(CCCC)c1ccc(/C=C(\C#N)C(=O)OCC(C)(COC(=O)/C(C#N)=C/c2ccc(N(CCCC)CCCC)cc2)COC(=O)/C(C#N)=C/c2ccc(N(CCCC)CCCC)cc2)cc1 [Compound No. 102]	440	125000	354				7.5 wt %
